Experiment [1] addresses T1, CDK1:Cyclin-B (Homo sapiens, UniProt P06493).
T1 construct: purchased New England Biolabs, Beverly, Mass; 6020; host or cells: insect cells
Put plainly: CDK1 Screening Assay. The format is biochemical. The settings on record: 33P-γ-ATP incorporation, 10 μM ATP. The essentials: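 Human CDK1/cyclin B co-expressed in insect cells (30 ng/well) in 50 mM Tris pH 8, 10 mM MgCl2, with 10 μM ATP, 33P-γ-ATP and 0.025 μM biotinylated histone H1 peptide (reaction-mix levels); 1% DMSO final. 1 h at 30° C. 33P incorporation into streptavidin-captured peptide by scintillation counting.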

For experiment [2], the target named is T2, VEGF-R2 (Rattus norvegicus, UniProt O08775).
T2 construct: polyhistidine (N)
Put plainly: VEGF-R2 Screening Assay. The settings on record: 33P-γ-ATP incorporation, 10 μM ATP. The class given is biochemical. The essentials:
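The N-terminally His-tagged rat VEGF-R2 kinase domain (aa 786-1343), diluted in 50 mM Tris-HCl pH 8.0 with 0.1% BSA, phosphorylated a biotinylated histone-H1 peptide with 33P-γ-ATP on Flashplates for 1 h at 30 °C in 1% DMSO. After washes with EDTA/PBS, immobilized 33P was counted by scintillation.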

For experiment [3], the target named is T3, HER2 (Homo sapiens, UniProt P04626).
T3 construct: polyhistidine (N)
Put plainly: HER2 kinase Screening Assay. The format is biochemical. The settings on record: 33P-γ-ATP incorporation, 10 μM ATP.

The target in experiment [4] is T4, Aurora-A (Mus musculus, UniProt P97477).
T4 construct: made in house; host or cells: sf9 insect cells
T4 sequence (P97477 1-395): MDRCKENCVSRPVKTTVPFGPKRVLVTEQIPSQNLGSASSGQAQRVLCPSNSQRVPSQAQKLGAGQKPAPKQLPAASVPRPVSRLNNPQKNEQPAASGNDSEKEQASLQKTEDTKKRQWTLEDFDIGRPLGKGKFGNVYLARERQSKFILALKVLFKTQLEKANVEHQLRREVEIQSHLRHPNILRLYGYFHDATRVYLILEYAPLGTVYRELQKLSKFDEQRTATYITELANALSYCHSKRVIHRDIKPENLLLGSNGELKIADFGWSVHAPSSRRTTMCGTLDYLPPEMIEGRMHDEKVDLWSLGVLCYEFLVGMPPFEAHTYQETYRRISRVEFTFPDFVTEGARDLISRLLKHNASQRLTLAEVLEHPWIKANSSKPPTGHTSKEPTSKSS
Put plainly: Aurora-A Screening Assay. The class given is biochemical, murine. The settings on record: 33P-γ-ATP incorporation, 10 μM ATP.

Experiment [5] has as its target T5, RET (Homo sapiens, UniProt P07949).
T5 construct: the RET cytoplasmic domain consisting of the last 492 amino acids of the intracellular domain of the RET tyrosine kinase; histidine tag (N); made in house; host or cells: Hi5 insect cells
T5 sequence (P07949 658-1114 limits assumed): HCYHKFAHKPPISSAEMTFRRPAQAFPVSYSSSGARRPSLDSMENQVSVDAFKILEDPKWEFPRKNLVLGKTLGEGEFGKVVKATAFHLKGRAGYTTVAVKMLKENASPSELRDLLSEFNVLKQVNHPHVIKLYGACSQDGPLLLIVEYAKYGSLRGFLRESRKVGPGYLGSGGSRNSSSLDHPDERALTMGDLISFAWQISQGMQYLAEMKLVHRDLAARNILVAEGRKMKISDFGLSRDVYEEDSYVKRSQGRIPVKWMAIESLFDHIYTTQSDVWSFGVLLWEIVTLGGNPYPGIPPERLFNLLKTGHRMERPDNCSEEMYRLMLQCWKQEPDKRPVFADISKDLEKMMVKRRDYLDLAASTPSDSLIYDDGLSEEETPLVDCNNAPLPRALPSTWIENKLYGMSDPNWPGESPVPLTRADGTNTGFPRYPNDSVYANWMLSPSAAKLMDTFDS
Put plainly: RET Kinase Screening Assay. The class given is biochemical. The settings on record: 33P-γ-ATP incorporation, 10 μM ATP.

Experiment [6] relates to HeLa cervical adenocarcinoma. Put plainly: Inhibition of cell proliferation (14C-thymidine incorporation), HeLa.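 Note: HeLa cells in 96-well scintillating plates, compound for 24 h then 24 h more with 14C-thymidine, counting label built into new DNA against DMSO-only control wells.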 The class given is cell-based. The conditions noted are these: Homo sapiens. A general note: Incorporation of labelled thymidine or its analogues reports DNA synthesis.
Experiment [7] relates to HCT-116 colon carcinoma. Put plainly: Inhibition of cell proliferation (14C-thymidine incorporation), HCT-116. The format is cell-based. The settings on record: Homo sapiens, HCT-116, HCT116. The essentials:
(§1)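 Cells (3000-8000/well) grown 24 h at 37° C, 5% CO2, then given compound in DMSO for 24 h before adding methyl 14C-thymidine (0.2 uCi/well) for a further 24 h with drug. After PBS washes, incorporation into DNA counted by scintillation.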

Experiment [8] has as its system A375 malignant melanoma. Put plainly: Inhibition of cell proliferation (14C-thymidine incorporation), A375. The format is cell-based, human. The conditions noted are these: Homo sapiens, A-375. The essentials: as §1

T2 sequence (O08775 786-1343): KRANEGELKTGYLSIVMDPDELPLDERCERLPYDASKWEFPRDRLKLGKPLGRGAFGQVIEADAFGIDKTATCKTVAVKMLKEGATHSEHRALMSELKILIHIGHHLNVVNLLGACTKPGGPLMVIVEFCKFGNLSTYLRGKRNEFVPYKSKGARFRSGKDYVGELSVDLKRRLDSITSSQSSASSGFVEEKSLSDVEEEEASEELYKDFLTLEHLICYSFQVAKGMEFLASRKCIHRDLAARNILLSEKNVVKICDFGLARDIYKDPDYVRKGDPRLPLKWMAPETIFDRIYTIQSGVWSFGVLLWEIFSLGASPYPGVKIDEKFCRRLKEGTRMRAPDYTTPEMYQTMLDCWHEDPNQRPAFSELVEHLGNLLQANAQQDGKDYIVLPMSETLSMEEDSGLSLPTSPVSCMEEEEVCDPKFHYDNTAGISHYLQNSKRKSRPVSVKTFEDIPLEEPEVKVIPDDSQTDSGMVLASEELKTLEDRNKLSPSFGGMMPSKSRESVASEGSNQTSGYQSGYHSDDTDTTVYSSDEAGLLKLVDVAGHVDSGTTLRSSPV
T3 sequence (P04626 676-1255 limits assumed): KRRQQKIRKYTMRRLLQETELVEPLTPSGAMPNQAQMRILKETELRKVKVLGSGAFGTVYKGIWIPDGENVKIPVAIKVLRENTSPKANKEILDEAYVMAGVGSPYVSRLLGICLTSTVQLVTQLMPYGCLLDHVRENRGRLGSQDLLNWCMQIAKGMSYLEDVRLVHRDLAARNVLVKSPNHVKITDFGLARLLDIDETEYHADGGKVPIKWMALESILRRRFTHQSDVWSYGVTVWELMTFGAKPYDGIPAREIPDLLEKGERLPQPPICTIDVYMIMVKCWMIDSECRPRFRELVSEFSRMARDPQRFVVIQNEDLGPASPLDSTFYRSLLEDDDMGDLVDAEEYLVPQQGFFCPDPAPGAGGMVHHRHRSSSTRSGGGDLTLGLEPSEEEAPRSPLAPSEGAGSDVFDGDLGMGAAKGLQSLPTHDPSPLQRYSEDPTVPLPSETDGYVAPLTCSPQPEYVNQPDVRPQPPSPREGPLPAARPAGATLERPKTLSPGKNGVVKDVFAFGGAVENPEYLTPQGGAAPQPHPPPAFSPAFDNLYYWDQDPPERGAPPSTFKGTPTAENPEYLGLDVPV
T1 sequence (P06493 whole entry): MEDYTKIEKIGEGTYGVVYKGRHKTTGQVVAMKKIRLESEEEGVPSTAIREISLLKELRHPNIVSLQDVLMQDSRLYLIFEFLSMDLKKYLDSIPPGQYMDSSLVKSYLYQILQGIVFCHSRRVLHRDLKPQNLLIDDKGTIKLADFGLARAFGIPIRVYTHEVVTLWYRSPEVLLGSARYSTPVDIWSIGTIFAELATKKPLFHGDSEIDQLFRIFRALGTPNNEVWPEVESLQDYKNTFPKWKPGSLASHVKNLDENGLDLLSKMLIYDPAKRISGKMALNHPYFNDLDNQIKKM
T1 sequence (P14635 whole entry partner): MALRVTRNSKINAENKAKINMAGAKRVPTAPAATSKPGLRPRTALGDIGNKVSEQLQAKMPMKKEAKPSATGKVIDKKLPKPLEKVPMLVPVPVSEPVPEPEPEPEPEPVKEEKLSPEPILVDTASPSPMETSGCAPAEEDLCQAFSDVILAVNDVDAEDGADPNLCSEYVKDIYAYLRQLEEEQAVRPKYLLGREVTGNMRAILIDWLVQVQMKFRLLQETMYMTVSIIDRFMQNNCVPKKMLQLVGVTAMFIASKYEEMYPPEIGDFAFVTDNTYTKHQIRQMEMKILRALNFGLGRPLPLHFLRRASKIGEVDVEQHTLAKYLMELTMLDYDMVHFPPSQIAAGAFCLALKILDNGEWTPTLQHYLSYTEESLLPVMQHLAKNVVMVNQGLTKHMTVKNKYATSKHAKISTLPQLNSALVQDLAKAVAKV

On to `OCCOc1ccc(Nc2nccc(-c3c[nH]c4ncccc34)n2)cc1` [Cpd 4, 2-{4-[4-(1H-Pyrrolo[2,3-b]pyridin-3-yl)-pyrimidin-2-ylamino]-phenoxy}-ethanol], for which the IC50 in experiment [1] was 0.021 µM; in experiment [2], 0.01 µM; in experiment [3] it was 0.01 µM; in experiment [4], 0.173 µM; in experiment [5], 1.41 µM; in experiment [6], 0.062 µM. The IC50 worked out at 0.062 µM in experiment [7] and 0.061 µM in experiment [8].

Take `OCCc1ccc(Nc2nccc(-c3c[nH]c4ncccc34)n2)cc1` [Cpd 1, 2-{4-[4-(1H-Pyrrolo[2,3-b]pyridin-3-yl)-pyrimidin-2-ylamino]-phenyl}-ethanol]: the IC50 was determined as 0.019 µM in experiment [1]; 0.087 µM in experiment [2]; 0.008 µM in experiment [3]; 0.159 µM in experiment [4]; 0.337 µM in experiment [5]; 0.056 µM in experiment [6]. In addition, the IC50 in experiment [7] was 0.022 µM; in experiment [8] it was 0.066 µM.

In the case of `CN(C)CCc1ccc(Nc2nccc(-c3c[nH]c4ncccc34)n2)cc1` [Cpd 23, [4-(2-Dimethylamino-ethyl)-phenyl]-[4-(1H-pyrrolo[2,3-b]pyridin-3-yl)-pyrimidin-2-yl]-amine], the IC50 in experiment [1] turned out to be 0.039 µM; in experiment [2], 0.066 µM; in experiment [3], 0.012 µM; in experiment [4], 0.257 µM; in experiment [6], 0.03 µM; in experiment [7] it was 0.025 µM. For the same compound, the IC50 in experiment [8] worked out at 0.024 µM.

For `c1cnc2[nH]cc(-c3ccnc(Nc4ccc(CCN5CCOCC5)cc4)n3)c2c1` [Cpd 22, [4-(2-Morpholin-4-yl-ethyl)-phenyl]-[4-(1H-pyrrolo[2,3-b]pyridin-3-yl)-pyrimidin-2-yl]-amine], the half-inhibitory concentration (IC50) in experiment [1] is 0.074 µM; in experiment [2], 0.084 µM; in experiment [3], 0.011 µM; in experiment [4] it was 0.173 µM; in experiment [5] it was 0.587 µM; in experiment [6], 0.035 µM. For the same compound, the figures for the IC50 in experiment [7] and in experiment [8] were 0.018 µM and 0.055 µM, respectively.

With `c1ccc(Nc2nccc(-c3c[nH]c4ncccc34)n2)cc1` [Cpd 3, Phenyl-[4-(1H-pyrrolo[2,3-b]pyridin-3-yl)-pyrimidin-2-yl]-amine], the IC50 in experiment [1] was 0.054 µM; in experiment [2], 0.213 µM; in experiment [3], 0.032 µM; in experiment [4], 0.159 µM; in experiment [5], 1 µM; in experiment [6], 0.382 µM. For the same compound, the IC50 in experiment [7] came to 0.26 µM; in experiment [8], 0.468 µM.

As for `c1cnc2[nH]cc(-c3ccnc(Nc4ccc(CCN5CCNCC5)cc4)n3)c2c1` [Cpd 20, [4-(2-piperazin-1-yl-ethyl)-phenyl]-[4-(1H-pyrrolo[2,3-b]pyridin-3-yl)-pyrimidin-2-yl]-amine], the IC50 in experiment [1] is 0.134 µM; in experiment [2] it was 0.186 µM; in experiment [3], 0.025 µM; in experiment [4] it was 0.253 µM; in experiment [5], 0.892 µM; in experiment [6], 0.14 µM. The IC50 is 0.037 µM in experiment [7] and 0.11 µM in experiment [8].

Turning to `COc1cc(Nc2nccc(-c3c[nH]c4ncccc34)n2)cc(OC)c1OC` [Cpd 2, [4-(1H-Pyrrolo[2,3-b]pyridin-3-yl)-pyrimidin-2-yl]-(3,4,5-trimethoxy-phenyl)-amine], the IC50 in experiment [1] was found to be 0.169 µM; in experiment [2], 0.046 µM; in experiment [3], 0.206 µM; in experiment [4], 0.063 µM; in experiment [6], 0.33 µM; in experiment [7] it was 0.56 µM. In experiment [8], this compound gave an IC50 of 0.75 µM.

In general, IC50 refers to the midpoint of a concentration-inhibition curve.

(Values after US7855205B2, “Pyrimidinyl substituted fused-pyrrolyl compounds useful in treating kinase disorders” (Janssen Pharmaceutica NV, priority 2004, dated 2010).)
